# Assay results as given in ChEMBL document CHEMBL6134918, “Novel Indole and Pyrrolopyridine Derivatives as GPR17 Modulators for Treating Multiple Sclerosis” (ACS Med Chem Lett, 2025).
# Target: Uracil nucleotide/cysteinyl leukotriene receptor (Homo sapiens, UniProt Q13304)
# Experiment: Inhibition of full length GPR17 (unknown origin) stably expressed in human 1321N1 cells incubated for 15 mins by cAMP based HTRF assay
# Assay type: functional, cell-based
# Uracil nucleotide/cysteinyl leukotriene receptor, sequence (Q13304 whole entry): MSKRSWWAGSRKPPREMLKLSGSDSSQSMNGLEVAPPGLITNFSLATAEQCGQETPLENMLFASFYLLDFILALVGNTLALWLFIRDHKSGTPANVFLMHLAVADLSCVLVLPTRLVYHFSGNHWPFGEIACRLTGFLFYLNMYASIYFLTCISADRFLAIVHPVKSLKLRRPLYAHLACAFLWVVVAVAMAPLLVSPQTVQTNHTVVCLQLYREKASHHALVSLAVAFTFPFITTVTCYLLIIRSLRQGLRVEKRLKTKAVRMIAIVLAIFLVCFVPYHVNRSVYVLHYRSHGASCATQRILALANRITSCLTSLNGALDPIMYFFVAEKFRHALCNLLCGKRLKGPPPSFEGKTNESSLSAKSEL
row,Structure (SMILES),IC50 [nM]
1,N#Cc1c(NS(=O)(=O)c2c[nH]c3cc(Cl)ccc23)cnn1CCC(F)(F)F,< 100
2,CCCn1ncc(NS(=O)(=O)c2c[nH]c3cc(Cl)ccc23)c1C#N,< 100
3,O=S(=O)(Nc1ncc(C(F)(F)F)s1)c1c[nH]c2cc(Cl)ccc12,< 100

# Now from value to molecule:
row,IC50 [nM],Structure (SMILES)
1,< 100,N#Cc1c(NS(=O)(=O)c2c[nH]c3cc(Cl)ccc23)cnn1CCCl
2,< 100,Cc1snc(NS(=O)(=O)c2c[nH]c3cc(Cl)ccc23)c1Cl
3,< 100,Cc1onc(NS(=O)(=O)c2c[nH]c3cc(Cl)c(Cl)cc23)c1Cl
